What was measured:
AChE enzyme = AChE enzyme (Homo sapiens, UniProt P22303); assay: biochemical; format: biochemical; conditions: for inhibition at 1000 µM: read-out: AChE% inhibition 10^−3 M; for inhibition at 100 µM: read-out: AChE% inhibition 10^−4 M; for IC50: tested at 10 to 0.001 µM
Text: (§1) The assay was completed in two steps.
(§2) The potential inhibitory effects of the obtained molecules on the AChE and BChE enzymes was examined using a variation of the Ellman method.[31,33,41–43] Distilled water from the Millipore/Milli-Q purification apparatus was utilized at every stage of the biological activity investigations during the evaluation process. In less than a week, all the solutions required for the biological investigation were meticulously prepared from scratch. A “BioTek-Precision Power (United States)” robotic pipetting system was utilized to distribute the prepared solutions and apply the test compounds and enzyme–substrate solutions to 96-well plates. The “BioTek-Synergy H1 Microplate Reader (United States)” was employed to establish and follow the enzyme protocol for spectrophotometric measurements. Solutions of the compounds were prepared at two different concentrations, 10^−3 M and 10^−4 M, using dimethylsulfoxide (DMSO) as 2% solution, and these were used in biological activity studies.

BChE enzyme = BChE enzyme (Homo sapiens, UniProt P06276); assay: biochemical; conditions: for inhibition at 1000 µM: read-out: BChE% inhibition 10^−3 M; for inhibition at 100 µM: read-out: BChE% inhibition 10^−4 M
Text: as §1, §2

Sequence of BChE enzyme (P06276 29-602, species assumed): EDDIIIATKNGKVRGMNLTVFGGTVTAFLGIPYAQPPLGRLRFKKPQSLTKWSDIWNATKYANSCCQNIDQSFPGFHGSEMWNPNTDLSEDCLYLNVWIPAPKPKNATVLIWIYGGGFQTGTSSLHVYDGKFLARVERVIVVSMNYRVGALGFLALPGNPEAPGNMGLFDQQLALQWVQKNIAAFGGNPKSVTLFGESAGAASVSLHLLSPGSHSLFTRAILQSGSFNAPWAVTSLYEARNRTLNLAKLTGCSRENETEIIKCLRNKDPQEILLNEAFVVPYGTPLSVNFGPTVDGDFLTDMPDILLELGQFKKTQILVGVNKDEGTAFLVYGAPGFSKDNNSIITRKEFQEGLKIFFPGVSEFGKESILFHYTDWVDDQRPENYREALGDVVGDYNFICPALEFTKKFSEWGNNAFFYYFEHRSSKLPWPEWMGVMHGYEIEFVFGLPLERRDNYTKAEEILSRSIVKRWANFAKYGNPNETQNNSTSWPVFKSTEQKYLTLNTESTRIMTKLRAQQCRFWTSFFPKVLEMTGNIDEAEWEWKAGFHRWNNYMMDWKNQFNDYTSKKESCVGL
Sequence of AChE enzyme (P22303 32-614): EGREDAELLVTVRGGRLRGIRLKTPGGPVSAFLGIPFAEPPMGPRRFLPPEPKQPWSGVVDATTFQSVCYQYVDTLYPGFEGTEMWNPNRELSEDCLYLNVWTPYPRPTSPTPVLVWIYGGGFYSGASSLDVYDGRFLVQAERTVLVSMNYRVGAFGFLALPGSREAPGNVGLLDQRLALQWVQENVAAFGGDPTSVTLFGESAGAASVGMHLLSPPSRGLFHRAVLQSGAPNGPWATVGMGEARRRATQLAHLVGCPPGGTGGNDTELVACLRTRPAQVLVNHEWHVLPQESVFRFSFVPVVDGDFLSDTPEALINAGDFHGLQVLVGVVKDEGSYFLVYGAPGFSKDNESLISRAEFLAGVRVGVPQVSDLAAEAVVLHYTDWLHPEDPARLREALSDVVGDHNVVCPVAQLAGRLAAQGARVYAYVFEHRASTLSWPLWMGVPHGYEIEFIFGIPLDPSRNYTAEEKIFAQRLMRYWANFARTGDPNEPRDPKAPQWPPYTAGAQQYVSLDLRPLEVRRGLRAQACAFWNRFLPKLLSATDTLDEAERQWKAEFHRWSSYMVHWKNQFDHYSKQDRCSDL

Row | SMILES | inhibition at 1000 µM (AChE enzyme) | inhibition at 100 µM (AChE enzyme) | IC50 (AChE enzyme) | IC50 (BChE enzyme) | inhibition at 1000 µM (BChE enzyme) | inhibition at 100 µM (BChE enzyme) | inhibitory activity (AChE enzyme; at concentrations of 1000 and 100 µM)
1 | CC(=NN=c1scc(-c2ccc(C)cc2)n1C)c1ccc(N2CCCCC2)cc1 [D1a, 3-Methyl-2-((1-(4-(piperidin-1-yl)phenyl)ethylidene)hydrazineylidene)-4-(p-tolyl)-2,3-dihydrothiazole] | 40.5 ± 1.92% | 36.5 ± 1.72% | > 1000 µM | > 1000 µM | 32.5 ± 1.06% | 20.4 ± 0.984% | 
2 | CC(=NN=c1scc(-c2ccc(F)cc2)n1C)c1ccc(N2CCCCC2)cc1 [D1b, 4-(4-Fluorophenyl)-3-methyl-2-((1-(4-(piperidin-1 yl)phenyl)ethylidene)hydrazineylidene)-2,3-dihydrothiazole] | 37.2 ± 1.54% | 31.1 ± 1.36% | > 1000 µM | > 1000 µM | 30.2 ± 0.936% | 19.6 ± 0.864% | 
3 | CC(=NN=c1scc(-c2ccc(Cl)cc2)n1C)c1ccc(N2CCCCC2)cc1 [D1d, 4-(4-Chlorophenyl)-3-methyl-2-((1-(4-(piperidin-1-yl)phenyl)ethylidene)hydrazineylidene)-2,3-dihydrothiazole] | 55.7 ± 2.08% | 29.6 ± 1.23% | > 100 µM | > 1000 µM | 23 ± 0.725% | 15.2 ± 0.734% | 
4 | COc1ccc(-c2csc(=NN=C(C)c3ccc(N4CCCCC4)cc3)n2C)cc1 [D1e, 4-(4-Methoxyphenyl)-3-methyl-2-((1-(4-(piperidin-1-yl)phenyl)ethylidene)hydrazineylidene)-2,3-dihydrothiazole] | 92.6 ± 1.8% | 84.1 ± 2.15% | 0.613 ± 0.025 µM | > 1000 µM | 27.6 ± 1.08% | 17.9 ± 0.71% | more than 50%
5 | CC(=NN=c1scc(-c2ccc(Cl)cc2Cl)n1C)c1ccc(N2CCCCC2)cc1 [D1g, 4-(2,4-Dichlorophenyl)-3-methyl-2-((1-(4-(piperidin-1-yl)phenyl)ethylidene)hydrazineylidene)-2,3-dihydrothiazole] | 63.5 ± 1.96% | 16.9 ± 0.778% | > 100 µM | > 1000 µM | 36.3 ± 1.56% | 31.1 ± 1.07% | 
6 | CC(=NN=c1scc(-c2ccc(Cl)c(Cl)c2)n1C)c1ccc(N2CCCCC2)cc1 [D1h, 4-(3,4-Dichlorophenyl)-3-methyl-2-((1-(4-(piperidin-1-yl)phenyl)ethylidene)hydrazineylidene)-2,3-dihydrothiazole] | 27.6 ± 1.18% | 14.7 ± 0.646% | > 1000 µM | > 1000 µM | 31.5 ± 1.31% | 24.3 ± 0.925% | 
7 | CC(=NN=c1scc(-c2ccc(C)cc2C)n1C)c1ccc(N2CCCCC2)cc1 [D1i, 4-(2,4-Dimethylphenyl)-3-methyl-2-((1-(4-(piperidin-1-yl)phenyl)ethylidene)hydrazineylidene)-2,3-dihydrothiazole] | 59.3 ± 1.29% | 13.7 ± 0.52% | > 100 µM | > 1000 µM | 40.9 ± 1.86% | 29.5 ± 0.846% | 
8 | C=CCn1c(-c2ccc(C)cc2)csc1=NN=C(C)c1ccc(N2CCCCC2)cc1 [D2a, 3-Allyl-2-((1-(4-(piperidin-1-yl)phenyl)ethylidene)hydrazineylidene)-4-(p-tolyl)-2,3-dihydrothiazole] | 38.6 ± 1.35% | 30.1 ± 1.45% | > 1000 µM | > 1000 µM | 30.8 ± 1.07% | 20.9 ± 0.802% | 
9 | C=CCn1c(-c2ccc(F)cc2)csc1=NN=C(C)c1ccc(N2CCCCC2)cc1 [D2b, 3-Allyl-4-(4-fluorophenyl)-2-((1-(4-(piperidin-1yl)phenyl)ethylidene)hydrazineylidene)-2,3-dihydrothiazole] | 47.2 ± 2.17% | 41.7 ± 1.96% | > 1000 µM | > 1000 µM | 38.2 ± 1.66% | 27.4 ± 1.25% | 
10 | C=CCn1c(-c2ccc([N+](=O)[O-])cc2)csc1=NN=C(C)c1ccc(N2CCCCC2)cc1 [D2c, 3-Allyl-4-(4-nitrophenyl)-2-((1-(4-(piperidin-1-yl)phenyl)ethylidene)hydrazineylidene)-2,3-dihydrothiazole] | 67 ± 1.85% | 31.4 ± 0.932% | > 100 µM | > 1000 µM | 35 ± 1.14% | 30.7 ± 1.15% | 
11 | C=CCn1c(-c2ccc(Cl)cc2)csc1=NN=C(C)c1ccc(N2CCCCC2)cc1 [D2d, 3-Allyl-4-(4-chlorophenyl)-2-((1-(4-(piperidin-1 yl)phenyl)ethylidene)hydrazineylidene)-2,3-dihydrothiazole] | 31.2 ± 1.32% | 28 ± 0.884% | > 1000 µM | > 1000 µM | 30.5 ± 1.03% | 20 ± 0.926% | 
12 | C=CCn1c(-c2ccc(OC)cc2)csc1=NN=C(C)c1ccc(N2CCCCC2)cc1 [D2e, 3-Allyl-4-(4-methoxyphenyl)-2-((1-(4-(piperidin-1-yl)phenyl)ethylidene)hydrazineylidene)-2,3-dihydrothiazole] | 39.6 ± 1.76% | 25.3 ± 1.06% | > 1000 µM | > 1000 µM | 25.7 ± 0.963% | 17.2 ± 0.634% | 
13 | C=CCn1c(-c2ccc(C#N)cc2)csc1=NN=C(C)c1ccc(N2CCCCC2)cc1 [D2f, 4-(3-Allyl-2-((1-(4-(piperidin-1-yl)phenyl)ethylidene)hydrazineylidene)-2,3-dihydrothiazol-4-yl)benzonitrile] | 76 ± 2.28% | 29.8 ± 1.26% | > 100 µM | > 1000 µM | 21.9 ± 0.855% | 16.5 ± 0.578% | 
14 | C=CCn1c(-c2ccc(Cl)cc2Cl)csc1=NN=C(C)c1ccc(N2CCCCC2)cc1 [D2g, 3-Allyl-4-(2,4-dichlorophenyl)-2-((1-(4-(piperidin-1-yl)phenyl)ethylidene)hydrazineylidene)-2,3-dihydrothiazole] | 39.7 ± 1.88% | 31.6 ± 1.47% | > 1000 µM | > 1000 µM | 29.3 ± 1.35% | 24 ± 1.07% | 
15 | C=CCn1c(-c2ccc(Cl)c(Cl)c2)csc1=N/N=C(\C)c1ccc(N2CCCCC2)cc1 [D2h, 3-Allyl-4-(3,4-dichlorophenyl)-2-(((E)-1-(4-(piperidin-1-yl)phenyl)ethylidene)hydrazineylidene)-2,3-dihydrothiazole] | 31.5 ± 1.04% | 20.3 ± 0.989% | > 1000 µM | > 1000 µM | 36.2 ± 1.36% | 31.5 ± 0.963% | 
16 | C=CCn1c(-c2ccc(C)cc2C)csc1=N/N=C(\C)c1ccc(N2CCCCC2)cc1 [D2i, 3-Allyl-4-(2,4-dimethylphenyl)-2-(((E)-1-(4-(piperidin-1-yl)phenyl)ethylidene)hydrazineylidene)-2,3-dihydrothiazole] | 28.1 ± 1.25% | 20.5 ± 0.862% | > 1000 µM | > 1000 µM | 42.1 ± 2.02% | 28.7 ± 1.12% | 
17 | CCn1c(-c2ccc(C)cc2)csc1=NN=C(C)c1ccc(N2CCCCC2)cc1 [D3a, 3-Ethyl-2-((1-(4-(piperidin-1-yl)phenyl)ethylidene)hydrazineylidene)-4-(p-tolyl)-2,3-dihydrothiazole] | 56.2 ± 1.75% | 37.5 ± 0.921% | > 100 µM | > 1000 µM | 45.4 ± 2.09% | 25.3 ± 1% | 

Reference: article PMC12637020, “Synthesis and biological evaluation of novel hydrazone derivatives for the treatment of Alzheimer's disease” (RSC Advances, 2025)
